From patent publication US10494384B2, “Urea peptoid boric acid compound, pharmaceutical composition thereof, preparation method therefor, and uses thereof” (Peking University, priority 2015, dated 2019)

Key:
BGC-823, liver cancer = assay: preliminary anti-tumor screening in vitro, SRB method; type: cell-based; details: Homo sapiens, read-out: inhibition rates (%) BGC-823
Description: (§1) The test methods used in this test example are routine methods for anti-tumor activities test in pharmaceutical area, for example, referring to the following reference: (J. Immunol Method, 1983, 65, 55).
(§2) Test models: A: MTT method (Hela, human cervical carcinoma); B: SRB method (BGC-823, […]); C: SRB method (MCF-7, breast cancer); D: SRB method (A549, human lung cancer); E: SRB method (PC3M1E8, prostate cancer).
(§3) Inhibition rates of the compounds were measured under concentrations of 0.1 μM, 1 μM or 10 μM.

MCF-7, breast cancer = assay: as above; type: cell-based; details: Homo sapiens, read-out: inhibition rates (%) MCF-7; for inhibition at 0.1 µM: MCF7, 0.1 μM; for inhibition at 1 µM: MCF7, 1 μM; for inhibition at 10 µM: MCF7, 10 μM
Description: as §1, §2, §3

A549, human lung cancer = assay: as above; type: cell-based; details: read-out: inhibition rates (%) A549
Description: as §1, §2, §3

[1] = biological target: T1, 20S proteasome extracted from rat liver (CT-L) (Rattus norvegicus, UniProt P18421+P28075); assay: inhibition of 20S proteasome, CT-L activity (fluorescent peptide); type: biochemical; details: rat liver 20S proteasome, 37° C., 1 h, read-out: inhibition rates (%) CT-L
T1 construct: 20S proteasome extracted from rat liver; from tissue; host or cells: rat liver
Description: (§4) 1 μg of 20S proteasome extracted from rat liver was incubated with a 100 μL solution containing various concentrations of the present compounds, 50 μM fluorescent peptides and 20 mM Tris-HCl at 37° C. for 1 h, respectively. […] 0.1% DMSO was used as a solvent control. Compared with the fluorescence of solvent control, an inhibition rate or IC50 value was calculated.

[2] = test system: Hela, human cervical carcinoma; assay: preliminary anti-tumor screening in vitro, MTT method; type: cell-based; details: read-out: inhibition rates (%) Hela
Description: as §1, §2, §3

[3] = biological target: T2, 20S proteasome extracted from rat liver (PGPH) (Rattus norvegicus, UniProt P28073+Q9JHW0); assay: inhibition of 20S proteasome, PGPH activity (fluorescent peptide); type: biochemical; details: rat liver 20S proteasome, 37° C., 1 h, read-out: inhibition rates (%) PGPH
T2 construct: 20S proteasome extracted from rat liver; from tissue; host or cells: rat liver
Description: as §4

[4] = biological target: T3, 20S proteasome extracted from rat liver (T-L) (Rattus norvegicus, UniProt P40112+Q9JHW0); assay: inhibition of 20S proteasome, T-L activity (fluorescent peptide); type: biochemical; details: rat liver 20S proteasome, 37° C., 1 h, read-out: inhibition rates (%) T-L
T3 construct: 20S proteasome extracted from rat liver; from tissue; host or cells: rat liver
Description: as §4

SMILES | inhibition at 0.1 µM (BGC-823, liver cancer) | inhibition at 1 µM (BGC-823, liver cancer) | inhibition at 10 µM (BGC-823, liver cancer) | inhibition at 0.1 µM (MCF-7, breast cancer) | inhibition at 1 µM (MCF-7, breast cancer) | inhibition at 10 µM (MCF-7, breast cancer) | inhibition at 0.1 µM (A549, human lung cancer) | inhibition at 1 µM (A549, human lung cancer) | inhibition at 10 µM (A549, human lung cancer) | inhibition at 0.2 µM [1] | inhibition at 2 µM [1] | inhibition at 20 µM [1] | inhibition at 0.1 µM [2] | inhibition at 1 µM [2] | inhibition at 10 µM [2] | inhibition at 0.2 µM [3] | inhibition at 2 µM [3] | inhibition at 20 µM [3] | inhibition at 0.2 µM [4] | inhibition at 2 µM [4] | other results
CC(C)C[C@H](NC(=O)N[C@H](Cc1ccccc1)C(=O)Nc1cnccn1)B(O)O [Example 10, N-L-leucine borate-N′-(pyrazin-2-ylcarbamoyl)-D-phenylalanine-urea] | 4.44% | 7.38% | 16.4% | 8.1% | 12.7% | 16% | 3.45% | 14.6% | 25% | -4.19% | 47.8% | 89% | 11.8% | 14.8% | 27% | 19% | 79.8% | 96% | -12.3% | -5.93% | inhibition at 20 µM [4]: 17.4%
CC(C)C[C@H](NC(=O)N[C@@H](CC(C)C)C(=O)N[C@@H](CC(C)C)C(=O)Nc1cnccn1)B(O)O [Example 11, N-L-leucine borate-N′-(pyrazin-2-ylcarbamoyl)-L-leucyl-L-leucine-urea] | 6.32% | 4.58% | 13.1% | 4.81% | 7.23% | 16.1% | -4.49% | 0.81% | 26.6% | 5.79% | 52.8% | 92.5% | 2.45% | 6.1% | 19.2% | 12.8% | 32.6% | 81% | -8.06% | -5.63% | inhibition at 20 µM [4]: 25.2%
CC(C)C[C@H](NC(=O)N[C@@H](Cc1ccccc1)C(=O)N[C@@H](CC(C)C)C(=O)Nc1cnccn1)B(O)O [Example 12, N-L-leucine borate-N′-(pyrazin-2-ylcarbamoyl)-L-leucyl-L-phenylalanine-urea] | 6.01% | 36.3% | 50.2% | 1.77% | 26.3% | 50.8% | 1.55% | 45.5% | 69.7% | 63.3% | 93.4% | 95.8% | 12% | 35% | 46% | 9.76% | 73.2% | 96.7% | -7.93% | 34.7% | inhibition at 20 µM [4]: 67.8%
CC(C)C[C@H](NC(=O)N[C@@H](Cc1ccccc1)C(=O)N[C@@H](CC(C)C)C(=O)Nc1cnccn1)B1OC(C)(C)C(C)(C)O1 [Example 13, N-L-leucine borate pinacol ester-N′-(pyrazin-2-ylcarbamoyl)-L-leucyl-L-phenylalanine-urea] | 3.66% | 17.8% | 40% | -3.69% | 8.39% | 20% | -9.11% | 23.5% | 50.5% | 45.4% | 91.3% | 95.4% | 7.02% | 20.2% | 37.7% | 5.28% | 53.4% | 96.8% | -3.11% | 13.8% | inhibition at 20 µM [4]: 49.4%
CC(C)C[C@H](NC(=O)[C@H](Cc1ccccc1)NC(=O)Nc1cccc(OCc2ccccc2)c1)B(O)O [Example 16, N-L-phenylalanyl-L-leucine borate-N′-(3-benzyloxy-phenylamine)-urea] | 6.01% | 34% | 48.7% | 6.62% | 27.2% | 51.4% | 5% | 36.2% | 65% | -14.6% | 86.6% | 94.5% | 9.91% | 34.1% | 39.6% | -14.4% | -2.93% | 92.4% | -2.89% | 12.3% | inhibition at 20 µM [4]: 62.2%
CC(C)C[C@H](NC(=O)[C@H](Cc1ccccc1)NC(=O)Nc1cnccn1)B(O)O [Example 17, N-L-phenylalanyl-L-leucine borate-N′-(pyrazin-2-ylamine)-urea] | 7.89% | 27.1% | 52.7% | 8.29% | 26.2% | 37.6% | 5.46% | 40.9% | 66% | 10.5% | 87.3% | 95.8% | 12.1% | 34.6% | 51.5% | 3.75% | 8.57% | 94.5% | -3.77% | 10.5% | inhibition at 20 µM [4]: 57.3%
CC(C)C[C@H](NC(=O)CNC(=O)Nc1cccc(OCc2ccccc2)c1)B(O)O [Example 21, N-glycyl-L-leucine borate-N′-(3-benzyloxy-phenylamine)-urea] | 0.38% | 2.21% | 23.1% | 5.41% | 9.64% | 24.2% | 7.42% | 25.2% | 41.4% | 47.3% | 90.9% | 95.6% | 9.87% | 12.9% | 29.9% | 8.58% | 62.5% | 96.9% | 0.355% | 29.3% | inhibition at 20 µM [4]: 62%
CC(C)C[C@H](NC(=O)CNC(=O)Nc1cc(Cl)ccc1Cl)B(O)O [Example 22, N-glycyl-L-leucine borate-N′-(2,5-dichloro-phenylamine)-urea] | 2.04% | 9.01% | 44.5% | 7.17% | 12.7% | 42.2% | 1.88% | 28.3% | 65.6% | 62% | 89.7% | 93.3% | 8.66% | 19.7% | 43.4% | 10.1% | 7.17% | 5.29% | -3.95% | 28.3% | inhibition at 20 µM [4]: 53.1%
CC(C)C[C@H](NC(=O)[C@H](Cc1ccccc1)NC(=O)[C@H](Cc1ccccc1)NC(=O)Nc1cccc(OCc2ccccc2)c1)B(O)O [Example 23, N-L-phenylalanyl-L-phenylalanyl-L-leucine borate-N′-(3-benzyloxy-phenylamine)-urea] | 43.2% | 42.7% | 81.6% | 23.7% | 56% | 73% | 32.7% | 68.8% | 81.3% | 49.5% | 91% | 94.2% | 17.4% | 42.5% | 75.7% | -13.7% | -20.5% | -20.3% | -0.748% | 47.2% | inhibition at 20 µM [4]: 90.5%
